Consider 16 compounds from patent publication US11324749B2, “Combination therapy for treatment of hematological diseases” (Incyte Corporation, priority 2018, dated 2022).

The target of experiment [1] is human JAK2 (a.a. 828-1132) (Homo sapiens (Human), UniProt O60674). Put plainly: In vitro JAK kinase assay (HTRF), JAK2 versus JAK1. It counts as biochemical. Conditions: IC50 ratio, 1 mM ATP.
Protocol: (§1) The catalytic activity of JAK1, JAK2, or JAK3 was assayed by measuring the phosphorylation of a biotinylated peptide. The phosphorylated peptide was detected by homogenous time resolved fluorescence (HTRF). […] Reactions are carried out at room temperature for 1 hour and then stopped with 20 μL 45 mM EDTA, 300 nM SA-APC, 6 nM Eu-Py20 in assay buffer (Perkin Elmer, Boston, Mass.). Binding to the Europium labeled antibody takes place for 40 minutes and HTRF signal was measured on a Fusion plate reader (Perkin Elmer, Boston, Mass.).
For experiment [2], the target named is human JAK1 (a.a. 837-1142) (Homo sapiens, UniProt P23458). The experiment in a line: In vitro JAK kinase assay (HTRF), JAK1. The settings on record: 1 mM ATP. Format: biochemical.
Protocol: as §1

human JAK2 (a.a. 828-1132), sequence (O60674 828-1132): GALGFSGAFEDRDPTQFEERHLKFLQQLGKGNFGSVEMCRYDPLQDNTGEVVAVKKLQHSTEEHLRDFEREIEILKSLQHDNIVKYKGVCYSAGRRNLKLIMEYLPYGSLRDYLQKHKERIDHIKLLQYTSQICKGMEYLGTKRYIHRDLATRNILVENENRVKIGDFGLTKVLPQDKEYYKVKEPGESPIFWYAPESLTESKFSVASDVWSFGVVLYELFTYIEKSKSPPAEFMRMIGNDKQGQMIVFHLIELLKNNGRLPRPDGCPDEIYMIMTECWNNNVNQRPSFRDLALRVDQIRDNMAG

`N#CC[C@]1(n2cc(-c3ncnc4[nH]ccc34)cn2)C[C@H](N2CCC(Oc3cc(CN4CCC[C@H]4CO)cc(C(F)(F)F)n3)CC2)C1` [Compound 12, {trans-3-(4-{[4-{[(2S)-2-(hydroxymethyl)pyrrolidin-1-yl]methyl}-6-(trifluoromethyl)pyridin-2-yl]oxy}piperidin-1-yl)-1-[4-(7H-pyrrolo[2,3-d]pyrimidin-4-yl)-1H-pyrazol-1-yl]cyclobutyl}acetonitrile]: in experiment [1], the JAK2/JAK1 is more than 10. In experiment [2], this compound came in with a concentration for half-maximal inhibition (IC50) of less than 10 nM.
In the case of `C[C@H](NC(=O)c1cc(F)c(N2CC(CC#N)(n3cc(-c4ncnc5[nH]ccc45)cn3)C2)cc1F)C(F)(F)F` [Compound 16, 4-{3-(cyanomethyl)-3-[4-(7H-pyrrolo[2,3-d]pyrimidin-4-yl)-1H-pyrazol-1-yl]azetidin-1-yl}-2,5-difluoro-N-[(1S)-2,2,2-trifluoro-1-methylethyl]benzamide], the JAK2/JAK1 in experiment [1] is more than 10. The compound also yielded an IC50 in experiment [2] of less than 10 nM.
Regarding `C[C@@H](CO)NCc1cc(OC2CCN([C@H]3C[C@](CC#N)(n4cc(-c5ncnc6[nH]ccc56)cn4)C3)CC2)nc(C(F)(F)F)c1` [Compound 23, {trans-3-(4-{[4-({[(1S)-2-hydroxy-1-methylethyl]amino}methyl)-6-(trifluoromethyl)pyridin-2-yl]oxy}piperidin-1-yl)-1-[4-(7H-pyrrolo[2,3-d]pyrimidin-4-yl)-1H-pyrazol-1-yl]cyclobutyl}acetonitrile], the JAK2/JAK1 in experiment [1] is listed as more than 10. For the same compound, in experiment [2], the IC50 was less than 10 nM.
For `N#CCC1(n2cc(-c3ncnc4[nH]ccc34)cn2)CN(C2CCN(C(=O)c3ccnc(C(F)(F)F)n3)CC2)C1` [Compound 3, [3-[4-(7H-pyrrolo[2,3-d]pyrimidin-4-yl)-1H-pyrazol-1-yl]-1-(1-{[2-(trifluoromethyl)pyrimidin-4-yl]carbonyl}piperidin-4-yl)azetidin-3-yl]acetonitrile], in experiment [1], the JAK2/JAK1 is reported as more than 10. Moreover, the IC50 in experiment [2] is less than 10 nM.
In the same order, the values of `N#CCC1(n2cc(-c3ncnc4[nH]ccc34)cn2)CN([C@H]2CC[C@@H](Oc3cc(CCO)nc(C(F)(F)F)n3)CC2)C1` [Compound 18, {1-(cis-4-{[6-(2-hydroxyethyl)-2-(trifluoromethyl)pyrimidin-4-yl]oxy}cyclohexyl)-3-[4-(7H-pyrrolo[2,3-d]pyrimidin-4-yl)-1H-pyrazol-1-yl]azetidin-3-yl}acetonitrile] are more than 10 and less than 10 nM.
`N#CCC(C1CCN(c2nc3cccnc3o2)C1)n1cc(-c2ncnc3[nH]ccc23)cn1` (centres unmarked) [Compound 7, 3-(1-[1,3]oxazolo[5,4-b]pyridin-2-ylpyrrolidin-3-yl)-3-[4-(7H-pyrrolo[2,3-d]pyrimidin-4-yl)-1H-pyrazol-1-yl]propanenitrile]: the JAK2/JAK1 in experiment [1] is more than 10. Also, the half-inhibitory concentration (IC50) in experiment [2] was less than 10 nM.
For `N#CCC(CN1CCN(C(=O)c2ccc(C#N)cc2F)CC1)n1ccc(-c2ncnc3[nH]ccc23)c1` (centres unmarked) [Compound 9, 4-[(4-{3-cyano-2-[3-(7H-pyrrolo[2,3-d]pyrimidin-4-yl)-1H-pyrrol-1-yl]propyl}piperazin-1-yl)carbonyl]-3-fluorobenzonitrile], in that order: more than 10 and less than 10 nM.
Regarding `N#CCC(CN1CCN(C(=O)c2ccc(C#N)cc2F)CC1)n1cc(-c2ncnc3[nH]ccc23)cn1` (centres unmarked) [Compound 8, 4-[(4-{3-cyano-2-[4-(7H-pyrrolo[2,3-d]pyrimidin-4-yl)-1H-pyrazol-1-yl]propyl}piperazin-1-yl)carbonyl]-3-fluorobenzonitrile], in experiment [1], the JAK2/JAK1 was more than 10. This compound also gave a half-maximal inhibitory concentration (IC50) in experiment [2] of less than 10 nM.
On to `N#CC[C@]1(n2cc(-c3ncnc4[nH]ccc34)cn2)C[C@H](N2CCN(C(=O)c3ccnc(C(F)(F)F)n3)CC2)C1` [Compound 10, [trans-1-[4-(7H-pyrrolo[2,3-d]pyrimidin-4-yl)-1H-pyrazol-1-yl]-3-(4-{[2-(trifluoromethyl)pyrimidin-4-yl]carbonyl}piperazin-1-yl)cyclobutyl]acetonitrile], for which, in experiment [1], the JAK2/JAK1 is more than 10. The compound further came in with a concentration for half-maximal inhibition (IC50) in experiment [2] of less than 10 nM.
For `C[C@@H](O)CNCc1cc(OC2CCN([C@H]3C[C@](CC#N)(n4cc(-c5ncnc6[nH]ccc56)cn4)C3)CC2)nc(C(F)(F)F)c1` [Compound 24, {trans-3-(4-{[4-({[(2R)-2-hydroxypropyl]amino}methyl)-6-(trifluoromethyl)pyridin-2-yl]oxy}piperidin-1-yl)-1-[4-(7H-pyrrolo[2,3-d]pyrimidin-4-yl)-1H-pyrazol-1-yl]cyclobutyl}acetonitrile], in that order: more than 10 and less than 10 nM.
Turning to `C[C@H](O)CNCc1cc(OC2CCN([C@H]3C[C@](CC#N)(n4cc(-c5ncnc6[nH]ccc56)cn4)C3)CC2)nc(C(F)(F)F)c1` [Compound 25, {trans-3-(4-{[4-({[(2S)-2-hydroxypropyl]amino}methyl)-6-(trifluoromethyl)pyridin-2-yl]oxy}piperidin-1-yl)-1-[4-(7H-pyrrolo[2,3-d]pyrimidin-4-yl)-1H-pyrazol-1-yl]cyclobutyl}acetonitrile], the JAK2/JAK1 in experiment [1] is more than 10. This compound registered a 50% inhibitory concentration (IC50) in experiment [2] of less than 10 nM.
In the case of `N#CCC1(n2cc(-c3ncnc4[nH]ccc34)cn2)CN([C@H]2CC[C@@H](Oc3cc(CN4CC[C@@H](O)C4)cc(C(F)(F)F)n3)CC2)C1` [Compound 21, {1-(cis-4-{[4-{[(3R)-3-hydroxypyrrolidin-1-yl]methyl}-6-(trifluoromethyl)pyridin-2-yl]oxy}cyclohexyl)-3-[4-(7H-pyrrolo[2,3-d]pyrimidin-4-yl)-1H-pyrazol-1-yl]azetidin-3-yl}acetonitrile], the JAK2/JAK1 in experiment [1] was more than 10. Further, the IC50 in experiment [2] was less than 10 nM.
`N#CC[C@]1(n2cc(-c3ncnc4[nH]ccc34)cn2)C[C@H](N2CCC(Oc3cc(CN4CCC[C@@H]4CO)cc(C(F)(F)F)n3)CC2)C1` [Compound 13, {trans-3-(4-{[4-{[(2R)-2-(hydroxymethyl)pyrrolidin-1-yl]methyl}-6-(trifluoromethyl)pyridin-2-yl]oxy}piperidin-1-yl)-1-[4-(7H-pyrrolo[2,3-d]pyrimidin-4-yl)-1H-pyrazol-1-yl]cyclobutyl}acetonitrile]: in experiment [1], the JAK2/JAK1 is more than 10. Further, the IC50 in experiment [2] is less than 10 nM.
In the same order, the values of `CCNCc1cc(O[C@H]2CC[C@@H](N3CC(CC#N)(n4cc(-c5ncnc6[nH]ccc56)cn4)C3)CC2)nc(C(F)(F)F)c1` [Compound 19, {1-(cis--4{[4-[(ethylamino)methyl]-6-(trifluoromethyl)pyridin-2-yl]oxy}cyclohexyl)-3-[4-(7H-pyrrolo[2,3-d]pyrimidin-4-yl)-1H-pyrazol-1-yl]azetidin-3-yl}acetonitrile] are more than 10 and less than 10 nM.
With `N#CC[C@]1(n2cc(-c3ncnc4[nH]ccc34)cn2)C[C@H](N2CCC(Oc3cc(CCO)cc(C(F)(F)F)n3)CC2)C1` [Compound 26, {trans-3-(4-{[4-(2-hydroxyethyl)-6-(trifluoromethyl)pyridin-2-yl]oxy}piperidin-1-yl)-1-[4-(7H-pyrrolo[2,3-d]pyrimidin-4-yl)-1H-pyrazol-1-yl]cyclobutyl}acetonitrile], the JAK2/JAK1 in experiment [1] is on record as more than 10. Besides, the IC50 in experiment [2] is less than 10 nM.
As to `N#CCC(C1CCN(c2cccc(Cl)n2)C1)n1cc(-c2ncnc3[nH]ccc23)cn1` (single isomer, unassigned) [Compound 6, 3-[1-(6-chloropyridin-2-yl)pyrrolidin-3-yl]-3-[4-(7H-pyrrolo[2,3-d]pyrimidin-4-yl)-1H-pyrazol-1-yl]propanenitrile], the JAK2/JAK1 in experiment [1] is more than 10. The compound further had an IC50 in experiment [2] of less than 10 nM.
